Data taken from the kinase profiling compilation of Christmann-Franck et al. (2016).

Key:
Assay in all cases: KINOMEscan competition binding
Details in all cases: compound 10.0 µM
PAK7 (human) = PAK7 (human) (UniProt Q9P286)
ACVRL1 (human) = ACVRL1 (human) (UniProt P37023)
MAP3K9 (human) = MAP3K9 (human) (UniProt P80192)
STK17A (human) = STK17A (human) (UniProt Q9UEE5)
STK24 (human) = STK24 (human) (UniProt Q9Y6E0)
MAP3K4 (human) = MAP3K4 (human) (UniProt Q9Y6R4)
ACVR1 (human) = ACVR1 (human) (UniProt Q04771)
FRK (human) = FRK (human) (UniProt P42685)
Sequence of FRK (human) (P42685 whole entry, looked up): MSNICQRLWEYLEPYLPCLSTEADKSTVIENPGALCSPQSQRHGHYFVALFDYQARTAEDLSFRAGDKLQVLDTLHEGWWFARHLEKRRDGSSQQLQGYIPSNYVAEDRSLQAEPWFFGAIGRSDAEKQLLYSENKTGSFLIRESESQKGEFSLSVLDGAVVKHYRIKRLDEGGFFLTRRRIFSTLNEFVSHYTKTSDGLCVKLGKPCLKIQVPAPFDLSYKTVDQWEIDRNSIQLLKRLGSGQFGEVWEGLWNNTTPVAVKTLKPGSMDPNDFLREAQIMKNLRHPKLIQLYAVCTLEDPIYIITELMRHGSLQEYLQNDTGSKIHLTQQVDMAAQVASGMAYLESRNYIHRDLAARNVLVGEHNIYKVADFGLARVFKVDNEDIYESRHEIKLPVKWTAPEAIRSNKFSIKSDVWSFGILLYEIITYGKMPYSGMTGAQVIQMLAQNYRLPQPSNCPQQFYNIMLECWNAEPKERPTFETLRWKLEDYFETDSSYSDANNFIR

ITK (human) = ITK (human) (UniProt Q08881)
Sequence of ITK (human) (Q08881 whole entry, looked up): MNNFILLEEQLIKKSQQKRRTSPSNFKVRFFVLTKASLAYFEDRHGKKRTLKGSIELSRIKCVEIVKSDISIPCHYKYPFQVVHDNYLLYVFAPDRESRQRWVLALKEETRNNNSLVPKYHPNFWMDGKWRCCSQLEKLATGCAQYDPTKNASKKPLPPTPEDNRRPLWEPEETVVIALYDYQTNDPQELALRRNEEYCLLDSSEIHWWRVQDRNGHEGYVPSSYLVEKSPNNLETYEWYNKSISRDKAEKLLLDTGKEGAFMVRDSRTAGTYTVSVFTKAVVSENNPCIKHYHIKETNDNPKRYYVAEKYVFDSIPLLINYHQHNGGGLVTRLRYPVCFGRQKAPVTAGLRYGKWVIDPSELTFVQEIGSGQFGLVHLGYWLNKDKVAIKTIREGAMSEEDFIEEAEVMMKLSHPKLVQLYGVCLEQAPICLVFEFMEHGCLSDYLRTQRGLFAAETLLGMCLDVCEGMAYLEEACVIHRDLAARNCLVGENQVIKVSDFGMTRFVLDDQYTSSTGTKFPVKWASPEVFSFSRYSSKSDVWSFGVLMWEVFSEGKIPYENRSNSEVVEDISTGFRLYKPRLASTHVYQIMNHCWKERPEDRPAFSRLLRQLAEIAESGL

MAPK13 (human) = MAPK13 (human) (UniProt O15264)
CAMKK1 (human) = CAMKK1 (human) (UniProt Q8N5S9)
EPHB4 (human) = EPHB4 (human) (UniProt P54760)
FGFR3 (human) = FGFR3 (human) (UniProt P22607)
RIOK2 (human) = RIOK2 (human) (UniProt Q9BVS4)
MUSK (human) = MUSK (human) (UniProt O15146)
MARK2 (human) = MARK2 (human) (UniProt Q7KZI7)
ROCK2 (human) = ROCK2 (human) (UniProt O75116)
MINK1 (human) = MINK1 (human) (UniProt Q8N4C8)
LTK (human) = LTK (human) (UniProt P29376)
SIK2 (human) = SIK2 (human) (UniProt Q9H0K1)
NEK7 (human) = NEK7 (human) (UniProt Q8TDX7)
Sequence of NEK7 (human) (Q8TDX7 whole entry, looked up): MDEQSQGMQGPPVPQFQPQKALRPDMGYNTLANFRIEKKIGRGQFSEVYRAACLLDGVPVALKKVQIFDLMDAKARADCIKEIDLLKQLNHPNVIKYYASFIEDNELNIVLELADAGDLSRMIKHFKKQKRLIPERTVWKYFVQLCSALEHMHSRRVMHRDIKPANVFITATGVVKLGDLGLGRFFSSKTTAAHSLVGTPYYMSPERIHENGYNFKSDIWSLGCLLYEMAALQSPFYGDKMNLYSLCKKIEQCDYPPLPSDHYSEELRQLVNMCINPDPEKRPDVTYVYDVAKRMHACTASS

FGFR4 (human) = FGFR4 (human) (UniProt P22455)
EPHB1 (human) = EPHB1 (human) (UniProt P54762)
[1] = biological target: TYK2 JH2 pseudokinase (human) (UniProt P29597)
STK4 (human) = STK4 (human) (UniProt Q13043)
[2] = biological target: JAK2 JH1 catalytic (human) (UniProt O60674)
NEK6 (human) = NEK6 (human) (UniProt Q9HC98)
Sequence of NEK6 (human) (Q9HC98 whole entry, looked up): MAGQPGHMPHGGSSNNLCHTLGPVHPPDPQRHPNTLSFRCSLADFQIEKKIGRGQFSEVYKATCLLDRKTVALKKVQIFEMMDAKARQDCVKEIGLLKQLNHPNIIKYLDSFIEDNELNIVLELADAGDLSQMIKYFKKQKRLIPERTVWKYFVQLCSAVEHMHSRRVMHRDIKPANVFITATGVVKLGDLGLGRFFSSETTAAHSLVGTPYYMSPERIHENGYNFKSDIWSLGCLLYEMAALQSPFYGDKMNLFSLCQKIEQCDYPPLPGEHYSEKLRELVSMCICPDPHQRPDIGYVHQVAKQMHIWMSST

CAMKK2 (human) = CAMKK2 (human) (UniProt Q96RR4)
AAK1 (human) = AAK1 (human) (UniProt Q2M2I8)
Sequence of AAK1 (human) (Q2M2I8 whole entry, looked up): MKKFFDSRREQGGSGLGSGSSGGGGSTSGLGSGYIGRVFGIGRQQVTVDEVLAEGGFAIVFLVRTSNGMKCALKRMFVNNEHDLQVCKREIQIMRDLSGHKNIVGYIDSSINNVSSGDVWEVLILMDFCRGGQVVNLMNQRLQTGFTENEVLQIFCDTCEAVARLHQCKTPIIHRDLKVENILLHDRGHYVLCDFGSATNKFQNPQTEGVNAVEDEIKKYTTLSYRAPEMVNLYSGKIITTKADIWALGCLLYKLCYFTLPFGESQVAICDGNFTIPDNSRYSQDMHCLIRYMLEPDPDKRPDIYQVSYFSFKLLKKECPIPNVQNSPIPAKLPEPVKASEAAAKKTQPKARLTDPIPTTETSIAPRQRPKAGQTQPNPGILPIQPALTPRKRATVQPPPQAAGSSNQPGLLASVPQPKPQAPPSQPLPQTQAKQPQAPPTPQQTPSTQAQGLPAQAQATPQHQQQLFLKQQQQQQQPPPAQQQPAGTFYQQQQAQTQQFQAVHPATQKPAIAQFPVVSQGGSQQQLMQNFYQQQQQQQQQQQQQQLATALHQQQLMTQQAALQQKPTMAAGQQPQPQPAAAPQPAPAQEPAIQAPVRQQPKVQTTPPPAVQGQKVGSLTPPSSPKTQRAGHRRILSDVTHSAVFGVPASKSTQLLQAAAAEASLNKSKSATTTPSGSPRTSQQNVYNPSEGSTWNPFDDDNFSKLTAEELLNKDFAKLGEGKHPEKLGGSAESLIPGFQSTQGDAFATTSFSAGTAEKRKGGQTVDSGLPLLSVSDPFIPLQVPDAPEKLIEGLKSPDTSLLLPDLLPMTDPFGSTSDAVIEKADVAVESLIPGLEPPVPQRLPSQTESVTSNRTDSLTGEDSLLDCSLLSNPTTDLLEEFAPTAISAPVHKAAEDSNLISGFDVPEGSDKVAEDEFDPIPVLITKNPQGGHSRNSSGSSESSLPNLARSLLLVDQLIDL

AKT1 (human) = AKT1 (human) (UniProt P31749)
NEK5 (human) = NEK5 (human) (UniProt Q6P3R8)
Sequence of NEK5 (human) (Q6P3R8 whole entry, looked up): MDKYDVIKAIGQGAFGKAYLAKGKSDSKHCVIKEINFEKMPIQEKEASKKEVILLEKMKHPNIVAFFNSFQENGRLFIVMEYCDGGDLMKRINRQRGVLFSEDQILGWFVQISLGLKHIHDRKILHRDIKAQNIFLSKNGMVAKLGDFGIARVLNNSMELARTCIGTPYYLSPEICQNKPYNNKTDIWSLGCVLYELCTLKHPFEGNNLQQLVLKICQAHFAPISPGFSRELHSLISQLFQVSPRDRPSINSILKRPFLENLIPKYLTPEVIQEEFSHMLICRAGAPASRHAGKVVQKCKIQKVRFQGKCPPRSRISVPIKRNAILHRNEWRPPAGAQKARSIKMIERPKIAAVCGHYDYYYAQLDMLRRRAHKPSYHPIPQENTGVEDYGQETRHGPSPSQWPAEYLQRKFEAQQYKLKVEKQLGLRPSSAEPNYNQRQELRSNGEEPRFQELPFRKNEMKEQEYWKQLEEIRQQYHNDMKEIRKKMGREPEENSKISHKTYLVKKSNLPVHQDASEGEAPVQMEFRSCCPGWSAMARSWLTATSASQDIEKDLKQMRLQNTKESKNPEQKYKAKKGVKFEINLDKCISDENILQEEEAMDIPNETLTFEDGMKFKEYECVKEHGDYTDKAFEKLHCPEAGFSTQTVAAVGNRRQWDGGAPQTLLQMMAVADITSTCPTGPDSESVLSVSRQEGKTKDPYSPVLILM

MAP3K3 (human) = MAP3K3 (human) (UniProt Q99759)

Measured: kinase still bound, per cent of control

Sequence of MAP3K4 (human) (Q9Y6R4 whole entry, looked up): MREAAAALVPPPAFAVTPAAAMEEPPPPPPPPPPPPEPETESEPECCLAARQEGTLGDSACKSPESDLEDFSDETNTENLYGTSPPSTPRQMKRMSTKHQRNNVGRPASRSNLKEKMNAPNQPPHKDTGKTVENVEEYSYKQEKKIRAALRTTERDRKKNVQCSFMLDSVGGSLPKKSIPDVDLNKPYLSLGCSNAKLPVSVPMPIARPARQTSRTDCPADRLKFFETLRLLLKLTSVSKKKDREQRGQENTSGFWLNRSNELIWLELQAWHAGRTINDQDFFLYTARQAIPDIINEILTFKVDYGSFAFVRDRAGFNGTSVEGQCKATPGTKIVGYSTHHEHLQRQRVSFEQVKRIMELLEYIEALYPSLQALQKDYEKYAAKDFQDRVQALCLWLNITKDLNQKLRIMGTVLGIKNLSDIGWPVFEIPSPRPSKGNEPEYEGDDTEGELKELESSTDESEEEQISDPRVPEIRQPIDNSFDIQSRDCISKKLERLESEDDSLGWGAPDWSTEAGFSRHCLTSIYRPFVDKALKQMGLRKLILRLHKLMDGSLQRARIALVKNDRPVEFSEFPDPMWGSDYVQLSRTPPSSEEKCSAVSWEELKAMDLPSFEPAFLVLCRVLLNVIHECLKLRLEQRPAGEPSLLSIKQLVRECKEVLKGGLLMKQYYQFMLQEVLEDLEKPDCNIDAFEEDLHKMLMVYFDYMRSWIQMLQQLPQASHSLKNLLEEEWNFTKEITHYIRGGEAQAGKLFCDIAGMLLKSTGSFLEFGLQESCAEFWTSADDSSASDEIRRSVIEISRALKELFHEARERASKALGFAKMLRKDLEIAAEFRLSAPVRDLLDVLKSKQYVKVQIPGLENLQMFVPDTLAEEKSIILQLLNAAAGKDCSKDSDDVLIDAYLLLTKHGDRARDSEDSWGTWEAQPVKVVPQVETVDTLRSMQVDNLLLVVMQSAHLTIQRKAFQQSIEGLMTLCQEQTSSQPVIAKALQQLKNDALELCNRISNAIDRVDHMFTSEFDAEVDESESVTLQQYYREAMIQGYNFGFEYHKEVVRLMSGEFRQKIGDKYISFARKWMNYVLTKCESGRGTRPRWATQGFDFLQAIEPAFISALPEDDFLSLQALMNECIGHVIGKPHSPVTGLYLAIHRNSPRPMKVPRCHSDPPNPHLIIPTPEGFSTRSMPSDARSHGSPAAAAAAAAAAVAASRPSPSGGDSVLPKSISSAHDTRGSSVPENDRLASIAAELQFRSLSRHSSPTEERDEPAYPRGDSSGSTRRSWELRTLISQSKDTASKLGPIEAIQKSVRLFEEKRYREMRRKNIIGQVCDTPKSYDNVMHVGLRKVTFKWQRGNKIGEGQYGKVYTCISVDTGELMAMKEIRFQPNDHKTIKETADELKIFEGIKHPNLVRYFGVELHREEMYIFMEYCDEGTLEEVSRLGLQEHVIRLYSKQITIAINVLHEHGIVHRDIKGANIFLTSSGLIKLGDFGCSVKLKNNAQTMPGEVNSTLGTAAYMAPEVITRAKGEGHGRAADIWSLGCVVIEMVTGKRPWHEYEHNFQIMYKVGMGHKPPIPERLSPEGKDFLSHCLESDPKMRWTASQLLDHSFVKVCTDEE

COc1cc(C)c(Sc2cnc(NC(=O)c3ccc(CNC(C)C(C)C)cc3)s2)cc1C(=O)N1CCN(C(C)=O)CC1 (stereo not given)
33%: STK24 (human)
14%: NEK7 (human)
12%: MAP3K4 (human)
0.2%: MUSK (human)
34%: LTK (human) | NEK6 (human)
24%: EPHB1 (human) | CAMKK2 (human)
0.25%: ITK (human)
100%: PAK7 (human) | ACVRL1 (human) | MAP3K9 (human) | STK17A (human) | ACVR1 (human) | FRK (human) | MAPK13 (human) | CAMKK1 (human) | EPHB4 (human) | FGFR3 (human) | RIOK2 (human) | MARK2 (human) | ROCK2 (human) | MINK1 (human) | SIK2 (human) | FGFR4 (human) | [1] | STK4 (human) | [2] | AAK1 (human) | AKT1 (human) | NEK5 (human) | MAP3K3 (human)

COc1ccc(N(C(=O)Oc2cc(C(=O)Nc3cccc(C(F)(F)F)c3)ccc2C)c2ccnc(Nc3ccc(N4CCN(C)CC4)cc3)n2)c(OC)c1
1.9%: SIK2 (human)
0.3%: EPHB4 (human)
20%: MUSK (human)
2.3%: [2]
2.7%: LTK (human)
0.15%: EPHB1 (human)
0.4%: FRK (human) | FGFR4 (human)
3.7%: FGFR3 (human)
100%: PAK7 (human) | ACVRL1 (human) | MAP3K9 (human) | STK17A (human) | STK24 (human) | MAP3K4 (human) | ACVR1 (human) | ITK (human) | CAMKK1 (human) | MARK2 (human) | NEK7 (human) | STK4 (human) | NEK6 (human) | CAMKK2 (human) | AAK1 (human) | AKT1 (human) | NEK5 (human)

COc1cc(N2CCC(C(N)=O)CC2)ccc1Nc1nc(N)c(Cl)c(Nc2ccccc2S(=O)(=O)C(C)C)n1
0.6%: LTK (human)
6.6%: FRK (human)
100%: PAK7 (human) | ACVRL1 (human) | MAP3K9 (human) | STK17A (human) | STK24 (human) | MAP3K4 (human) | ACVR1 (human) | ITK (human) | MAPK13 (human) | EPHB4 (human) | FGFR3 (human) | RIOK2 (human) | MUSK (human) | MARK2 (human) | ROCK2 (human) | MINK1 (human) | SIK2 (human) | NEK7 (human) | FGFR4 (human) | EPHB1 (human) | [1] | STK4 (human) | [2] | NEK6 (human) | AAK1 (human) | AKT1 (human) | NEK5 (human) | MAP3K3 (human)
18%: CAMKK1 (human)
6.5%: CAMKK2 (human)
